ChEMBL document CHEMBL1130524, “An aromatic moiety is not essential for pharmacophore binding to sigma binding sites: Synthesis of N-alkylazacycloheptane derivatives as potent sigma ligands” (Bioorg Med Chem Lett, 1997)

What follows are molecules tested against Sigma 2 receptor (assay: Inhibition of [3H]-DTG binding to Sigma opioid receptor type 2).
In the case of CC1(C)C2CC[C@]1(C)CN(CCCC1CCCCC1)C2, the Ki is reported as 0.56 nM.
In the case of CC1(C)C2CC[C@]1(C)CN(CCC1CCCCCCC1)C2, the Ki is reported as 0.33 nM.
For CC1(C)C2CC[C@@]1(C)CN(CC1CCCCC1)C2, the Ki was 3.54 nM.
Molecule CC1(C)C2CC[C@]1(C)CN(CC1CCCCC1)C2 has a Ki of 3.14 nM.
With CC1(C)C2CC[C@]1(C)CN(CCC1CCCC1)C2 the Ki was 0.7 nM.
Molecule CC1(C)C2CC[C@]1(C)CN(CCC1C3CC4CC(C3)CC1C4)C2 (some centres not stated) has a Ki of 0.77 nM.
Molecule CC1(C)C2CC[C@]1(C)CN(C1CCCCC1)C2 has a Ki of 1.1 nM.
Molecule CC1(C)C2CC[C@]1(C)CN(CCCCC1CCCCC1)C2 has a Ki of 6.79 nM.
CC1(C)C2CC[C@]1(C)CN(CCC1CCCCC1)C2 was tested, and the Ki was 0.28 nM.
Work on CC1(C)C2CC[C@@]1(C)CN(CCC1CCCCC1)C2 yielded a Ki of 0.23 nM.
CC1(C)C2CC[C@]1(C)CN(CCC1CCCCCC1)C2 showed a Ki of 0.25 nM.
Work on C=CCN1CC[C@@]2(C)c3cc(O)ccc3C[C@H]1[C@H]2C (racemic) yielded a Ki of 14200 nM.
